Experimental data as given in patent US20050074426A1, “Fusions of cytokines and tumor targeting proteins” (priority 2002, published 2005).
Read-outs that look alike come from different tables or passages of the source.

Legend:
[1] = molecular target: T1, p75TNFR (Homo sapiens, UniProt P20333); conditions: cited from earlier work
T1 sequence (P20333 23-461): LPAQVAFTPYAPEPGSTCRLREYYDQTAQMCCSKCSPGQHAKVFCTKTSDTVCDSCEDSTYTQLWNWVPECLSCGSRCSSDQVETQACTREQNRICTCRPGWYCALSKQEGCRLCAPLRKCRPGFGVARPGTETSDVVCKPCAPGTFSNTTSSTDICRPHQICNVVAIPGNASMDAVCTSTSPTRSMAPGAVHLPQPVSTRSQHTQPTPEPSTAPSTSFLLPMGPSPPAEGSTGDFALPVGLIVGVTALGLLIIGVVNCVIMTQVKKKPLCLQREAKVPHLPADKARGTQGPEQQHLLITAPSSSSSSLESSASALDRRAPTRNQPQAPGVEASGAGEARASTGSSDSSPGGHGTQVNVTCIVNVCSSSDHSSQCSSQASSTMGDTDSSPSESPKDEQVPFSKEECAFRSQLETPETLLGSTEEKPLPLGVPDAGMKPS

[2] = test system: RMA-T lymphoma; assay: anti-tumor activity and survival in RMA-T lymphoma bearing mice; assay type: in vivo, C57BL/6 mice
Description: The Rauscher virus-induced RMA lymphoma of C57BL/6 origin (69) were maintained in vitro in RPMI 1640, 5% fetal bovine serum (FBS), 100 U/ml penicillin, 100 μg/ml streptomycin, 0.25 μg/ml amphotericin B, 2 mM glutamine and 50 μM 2-mercaptoethanol. RMA-T was derived from the RMA cell line by transfection with a construct encoding the Thy 1.1 allele and cultured as described Moro, 1997 #28].
(§1) In vivo studies on animal models were approved by the Ethical Committee of the San Raffaele H Scientific Institute and performed according to the prescribed guidelines. C57BL/6 (Charles River Laboratories, Calco, Italy) (16-18 g) were challenged with 5×10^4 RMA-T or TSA living cells, respectively, s.c. in the left flank. […] Each experiment was carried out with 5 mice per group. The tumor growth was monitored daily by measuring the tumor size with calipers. The tumor area was estimated by calculating r1×r2 π, whereas tumor volume was estimated by calculating r1×r2×r3×4/3 π, where r1 and r2 are the longitudinal and lateral radii, and r3 is the thickness of tumors protruding from the surface of normal skin. Animals were killed before the tumor reached 1.0-1.3 cm diameter. Tumor sizes are shown as mean±SE (5-10 animals per group) and compared by t-test.
To avoid excessive suffering, the animals were killed when the tumor diameter was greater than 1-1.3 cm.

[3] = cited from earlier work
[4] = molecular target: T2, p55TNFR (Homo sapiens, UniProt P19438); conditions: cited from earlier work
T2 sequence (P19438 30-455): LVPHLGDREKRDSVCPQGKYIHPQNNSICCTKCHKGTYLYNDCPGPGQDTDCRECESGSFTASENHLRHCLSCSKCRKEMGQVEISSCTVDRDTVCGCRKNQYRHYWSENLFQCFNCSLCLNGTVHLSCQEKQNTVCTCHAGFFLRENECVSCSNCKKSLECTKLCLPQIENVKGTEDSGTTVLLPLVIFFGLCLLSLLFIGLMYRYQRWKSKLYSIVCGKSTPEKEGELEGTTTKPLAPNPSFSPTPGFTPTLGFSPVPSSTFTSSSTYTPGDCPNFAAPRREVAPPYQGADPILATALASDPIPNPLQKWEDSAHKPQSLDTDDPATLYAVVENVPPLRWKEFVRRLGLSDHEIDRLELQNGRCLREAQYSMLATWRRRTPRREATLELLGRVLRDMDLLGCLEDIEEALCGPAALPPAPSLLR

[5] = lethality in RMA-T tumor bearing mice; assay type: in vivo, C57BL/6 mice; conditions: 3 days after treatment, single dose i.p.
Description: as §1, with “flank. Ten-twelve days after tumor implantation, mice were treated, i.p., with 250 μl TNF or RGD-TNF solutions, diluted with endotoxin-free 0.9% sodium chloride.” for “flank.”
Murine TNF administered to animals bearing established s.c. RMA-T tumors, causes 24 h later a reduction in the tumor mass and haemorragic necrosis in the central part of the tumor, followed by a significant growth delay for few days (71). […] In a first set of experiments we investigated the effect of various doses (i.p.) of TNF or RGD-TNF on animal survival. […]

[6] = test system: L-M mouse fibroblasts (ATCC CCL1.2)
[7] = dose 1 μg i.v., treated 12 days after tumor implantation
[8] = dose 2 μg i.v., treated 12 days after tumor implantation
[9] = dose 4 μg i.v., treated 12 days after tumor implantation

TNF: Tumor Necrosis Factor-α; in the examples murine recombinant Met-TNF1-156 produced in E. coli
Kd [1]: 0.1 nM | Survival (%) Day 14 [2, 7]: 100% | Survival (%) Day 22 [2, 7]: 22% | Survival (%) Day 32 [2, 7]: 0% | Survival (%) Day 14 [2, 8]: 100% | Survival (%) Day 22 [2, 8]: 37% | Survival (%) Day 32 [2, 8]: 0% | Survival (%) Day 90 (2nd ch.) ([2]; dose 4 μg i.v., re-challenge with 50.000 RMA-T at day 90): 0% | Survival (%) Day 14 [2, 9]: 100% | Survival (%) Day 22 [2, 9]: 70% | Survival (%) Day 32 [2, 9]: 30% | Survival (%) Day 37 [2, 9]: 10% | Survival (%) Day 14 ([2]; dose 8 μg i.v., treated 12 days after tumor implantation): 0% | Survival (%) Day 14 ([2]; dose 16 μg i.v., treated 12 days after tumor implantation): 0% | animals cured ([2]; single treatment, RGD-TNF 16 μg, TNF all doses): no animals at all were cured | maximum tolerated dose ([3]; bolus, intravenous, humans): 218-410 μg/m^2 | maximum tolerated dose ([3]; systemic administration): 8 to 10 µg/kg | Kd [4]: 0.5 nM | LD50 (lethality) [5]: 6 µg | in vitro cytotoxic activity [6]: (1.2±0.14)×10^8 units/mg
